The record followed here is article PMC8998978, “Toward a Treatment of Cancer: Design and In Vitro/In Vivo Evaluation of Uncharged Pyrazoline Derivatives as a Series of Novel SHP2 Inhibitors” (International Journal of Molecular Sciences, 2022).

Experiment [1] deals with RAS/MAPK signaling pathway in HCT116 cells. As to the kind of experiment: RAS activation assay and p-Erk Western blotting. The note with it: HCT116, 4o 2.5, 5 and 10 μM, 12 h, dose-dependent, versus DMSO. The class given is cell-based, human. Here is the method:
HCT116 cells were harvested, lysed on ice in RIPA buffer (Beyotime Institute of Biotechnology, Shanghai, China) and boiled. Protein concentration was measured by BCA protein assay kit (Beyotime Institute of Biotechnology, Shanghai, China). The protein samples were separated by SDS-PAGE and transferred to the membrane (Pall, New York, NY, USA). Afterwards, the membrane was immunoblotted with the corresponding primary antibody (C-parp (#5625), C-cas9 (#9505), C-cas3 (#9661), Bcl-2 (#4223), Bax (#5023), SHP2 (#3752), P-Erk1/2 (#9101) and Erk1/2 (#9102), 1:1000, Cell Signaling Technology, Danvers, MA, USA; Tubulin (#ET1602-4), 1:5000, HUABIO, Hangzhou, China) and the appropriate HRP-conjugated secondary antibody, and determined with ECL detection reagent (Thermo Scientific, Waltham, MA, USA).
Active RAS (RAS-GTP) was pulled down from HCT116 cells. Cells were seeded in 6-well plates and treated with different concentrations of 4o for 12 h after overnight serum starvation. Cells were stimulated with 100 ng/mL hEGF for 5 min before cell lysis. On the basis of protein extraction and quantification, RAS activation assay biochem kit (Cytoskeleton Inc., Denver, CO, USA) was used for detection according to the requirements of manufacturers.

In experiment [2] the target is T1, recombinant human SHP2 protein (Homo sapiens, UniProt Q06124).
T1 sequence (Q06124 1-593): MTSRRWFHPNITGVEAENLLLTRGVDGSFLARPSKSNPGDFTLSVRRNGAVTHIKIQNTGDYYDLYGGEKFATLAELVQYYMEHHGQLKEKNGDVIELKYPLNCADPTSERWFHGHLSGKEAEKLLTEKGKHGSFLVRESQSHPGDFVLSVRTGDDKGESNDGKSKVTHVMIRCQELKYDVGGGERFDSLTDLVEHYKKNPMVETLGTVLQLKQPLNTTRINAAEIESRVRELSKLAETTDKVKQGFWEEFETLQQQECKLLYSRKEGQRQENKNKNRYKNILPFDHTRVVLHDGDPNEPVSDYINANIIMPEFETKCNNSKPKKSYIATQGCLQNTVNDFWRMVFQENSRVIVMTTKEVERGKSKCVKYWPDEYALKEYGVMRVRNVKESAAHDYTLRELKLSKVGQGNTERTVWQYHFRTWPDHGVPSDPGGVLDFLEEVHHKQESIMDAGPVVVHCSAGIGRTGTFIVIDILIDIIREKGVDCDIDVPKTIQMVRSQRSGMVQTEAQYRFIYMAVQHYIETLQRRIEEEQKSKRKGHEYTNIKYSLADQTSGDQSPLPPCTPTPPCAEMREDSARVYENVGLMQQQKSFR
Kind of experiment: SHP2 inhibition assay (pNPP substrate). The class given is biochemical. The note with it: pNPP 4 mM, SHP2 240 nM, 37 °C, 30 min; means ± SD. Here is the method:
pGEX-4T1 SHP2 WT (plasmid #8322) was purchased from Addgene. […] Then, 0.2 mM IPTG (Sangon Biotech, Shanghai, China) was added to induce the expression of protein at 30 °C for 4 h followed by centrifugation and cells collection. Cells were then broken by ultrasound in lysis buffer (20 mM Tris–HCl (pH 8.0), 100 mM KCl, 10% glycerol, 1 mM DTT, 0.5% Triton X-100) on ice. The supernatant was collected by centrifugation at 10,000× g for 15 min at 4 °C. The BeaverBeads GSH (Beaver Biosciences Inc., Guangzhou, China) washed by lysis buffer were incubated with the supernatant for 2 h at 4 °C. […] Then, the experiment was performed in a final volume of 100 μL containing 10 mM Tris–HCl (pH 7.5), 25 mM NaCl, 1 mM EDTA and 4 mM pNPP in a 96-well plate at 37 °C for 30 min. The amount of product p-nitrophenol was determined by the absorbance at 405 nm in a multimode reader (Berthold Technologies GmbH & Co.KG, Bad Wildbad, Baden Württemberg, Germany). The IC50 value was calculated by GraphPad Prism 7.0 software (GraphPad Inc, San Diego, CA, USA).

Experiment [3] concerns HCT116 cells. Kind of experiment: Hoechst 33258 staining. The format is cell-based, human. The note with it: HCT116, 4o 2.5, 5 and 10 μM, 24 h. How it is done:
HCT116 cells were treated with different concentrations of 4o for 24 h, then were stained with Hoechst 33,258 (Beyotime Institute of Biotechnology, Shanghai, China). The nuclear morphology was observed under fluorescence microscope.

In experiment [4] the test system is K562 cells. Kind of experiment: Cell viability assay (MTT). The conditions noted are these: Homo sapiens, K562, 72 h. The format is cell-based. An excerpt:
Human colon cancer cell line HCT116, hepatoma cell lines HepG2 and BEL-7402, lung adenocarcinoma cell lines NCI-H1975 and 95-D, pancreatic cancer cell line Panc-1, breast cancer cell line MDA-MB-231, NSCLC cell line NCI-H1299, ovarian cancer cell line SK-OV-3, leukemia cell line K562, glioma cell line U87, colon epithelial cell line NCM460 and umbilical vein endothelial cell line HUVEC were purchased from the Institute of Biochemistry and Cell Biology, Chinese Academy of Sciences (Shanghai, China). HCT116 cell line was cultured in McCoy’s 5A medium (Hyclone, Logan, UT, USA). HepG2, 95-D, Panc-1, MDA-MB-231, BEL-7402, SK-OV-3, U87 and NCM460 cell lines were cultured in DMEM-High glucose medium (Hyclone, Logan, UT, USA). NCI-H1975, NCI-H1299 and HUVEC cell lines were cultured in RPMI 1640 medium (Hyclone, Logan, UT, USA). K562 cell line was cultured in IMDM medium (Hyclone, Logan, UT, USA). […]
The inhibition rate of cell viability was detected by 3-(4,5-dimethyl-2-thiazolyl)-2,5-diphenyl-2-H-tetrazolium bromide (MTT, Solarbio, Beijing, China) or Sulforhodamine B (SRB, Sigma-Aldrich, St. Louis, MO, USA) assay. […] The absorbance at 570 nm was measured in a multimode reader (Berthold Technologies, Germany). […] Finally, Tris–HCl solution was added, and the absorbance at 515 nm was detected in a multimode reader (Berthold Technologies, Germany).

For orientation: IC50 means the point on the concentration scale where inhibition reaches its midpoint. On to `CCOc1ccc(Oc2ccc(C3=NN(C4=NC(=O)CS4)C(c4cc(O)c(O)c(Br)c4Br)C3)cc2)cc1` (stereo not shown) [Compound 4o, 2-(5-(2,3-dibromo-4,5-dihydroxyphenyl)-3-(4-(4-ethoxyphenoxy)phenyl)-4,5-dihydro-1H-pyrazol-1-yl)thiazol-4(5H)-one], for which, in experiment [1], the “Levels of RAS-GTP and p-Erk” value was “decreased”. Moreover, the IC50 in experiment [2] is 1.56 ± 0.25 µM; in experiment [4], 9.6 ± 0.68 µM. The “Nuclear morphology (Hoechst 33,258 staining)” value in experiment [3] is “chromatin was condensed and apoptosis occurred”.
